Results taken from EPA's ToxValDB 9.5 (doi:10.2903/j.efsa.2011.2018).
Values after ≈ are worked out from the molar mass of the structure shown.

Legend:
Tagia sp. = settings: acute; duration: 14 days; mortality
Folsomia candida = settings: chronic/long-term; duration: 28 days; mortality
Lepomis macrochirus = settings: acute; duration: 96 hours; mortality
Apis mellifera = settings: acute; duration: 48 hours; dermal; mortality
Anas platyrhynchos = settings: short-term; oral; feed; mortality
Aphidius rhopalosiphi = assay: LR50; higher = less toxic; settings: not reported; mortality

Structure (SMILES): [O-][n+]1nc(-n2ccnc2)nc2ccc(Cl)cc21 [Triazoxide]
- LC50 (Tagia sp.): > 1000 mg/kg
- NOEC (Folsomia candida): 500 mg/kg
- LD50 (Coturnix japonica; acute, oral, mortality): 90 mg/kg-day
- NOEC (Coturnix japonica; reproduction developmental, duration: 6 weeks): 11.7 mg/kg-day
- LC50 (Lepomis macrochirus): 0.077 µg/mL (≈ 0.311 µM)
- LD50 (Rattus norvegicus; acute, oral, mortality): 14 mg/kg-day
- LOAEL (Rattus norvegicus; chronic, duration: 2 years, gross pathology): 0.05 mg/kg-day
- NOEL (Rattus norvegicus; reproduction developmental, no effects): 2.04 mg/kg-day
- NOAEL (Rattus norvegicus; short-term, duration: 28 days): 1.5 mg/kg-day
- NOAEL (Rattus norvegicus; subchronic, duration: 90 days, oral, hematological): 0.21 mg/kg-day
- LD50 (Apis mellifera): > 200 µg/piece
- LC50 (Anas platyrhynchos): 268 mg/kg-day
- LR50 (Aphidius rhopalosiphi): > 5.13 g/ha
